Drawing on patent US20040248887A1, “Inhibitors of cathepsin S” (IRM LLC, priority 2003, published 2004), this text covers Ki for 7 compounds.

Where two headings read alike, the source gives them in different places.

Holding throughout (type): biochemical
Experiment [1] has as its target Cathepsin B (Homo sapiens, UniProt P07858). Briefly: Cathepsin B inhibition, fluorogenic peptide substrate kinetic assay. As to conditions: Table III; Cathepsin B inhibition constant, pH5.5; read-out: Ki Cat. B. As to the method:
The optimal substrate for cathepsin B, acetyl-histidine-proline-valine-lysine-amino carbamoyl coumarin, was identified from screening a combinatorial library of fluorogenic peptide substrates (Harris, J. L., B. J. Backes, et al., Proc Natl Acad Sci USA 2000, 97(14), 7754-9). Kinetic measurements are performed in a total reaction volume of 30 μl in 384-well microtiter plates. Cathepsin B, at a final concentration of 1.5 nM (active site), is incubated with the compounds at twelve varying concentrations in a buffer containing 100 mM NaAc (pH5.5), 1 mM EDTA, 100 mM NaCl, 0.01% Brij-35 for 20 minutes at room temperature. Control reactions in the absence of inhibitor are performed in replicates of 24. The reactions are initiated by adding the substrate, acetyl-histidine-proline-valine-lysine-amino carbamoyl coumarin, to a final concentration of 10 μM. The rate of substrate hydrolysis is measured by monitoring the increase in fluorescence at an excitation wavelength of 380 nm and an emission wavelength of 450 nm that results from cleavage of the aniline bond in the substrate by the enzyme. The apparent inhibition constants for the compounds are determined from the enzyme progress curves (Kuzmie, P., K. C. Elrod, et al., Anal Biochem 2000, 286(1), 45-50) and are then used to calculate the inhibition constants for competitive inhibitors.

Experiment [2] deals with Cathepsin S (Homo sapiens, UniProt P25774). Kind of experiment: Cathepsin S inhibition, fluorogenic peptide substrate kinetic assay. As to conditions: Cathepsin S inhibition constant, pH5.5, read-out: Ki Cat. S. The essentials:
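Ki values derive from apparent constants fitted to progress curves, corrected for competition with substrate via [S] and Km. Kinetics were monitored at 380 nm excitation/450 nm emission, after substrate addition (Ac-HPVK-ACC, 50 μM final) to start the reaction.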

Experiment [3] deals with Cathepsin L (Homo sapiens, UniProt P07711). Briefly: Cathepsin L inhibition, fluorogenic peptide substrate kinetic assay. Particulars: Table III; Cathepsin L inhibition constant, pH5.5; read-out: Ki Cat. L. Here is the method:
(§1) Kinetic measurements are performed in a total reaction volume of 30 μl in 384-well microtiter plates. […] The reactions are initiated by adding the substrate, acetyl-histidine-lysine-phenylalanine-lysine-amino carbamoyl coumarin, to a final concentration of 20 μM. The rate of substrate hydrolysis is measured by monitoring the increase in fluorescence at an excitation wavelength of 380 nm and an emission wavelength of 450 nm that results from cleavage of the aniline bond in the substrate by the enzyme. The apparent inhibition constants for the compounds are determined from the enzyme progress curves (Kuzmic, P., K. C. Elrod, et al., Anal Biochem 2000, 286(1), 45-50) and are then used to calculate the inhibition constants for competitive inhibitors.

For experiment [4], the target named is T1, Cathepsin K (Homo sapiens, UniProt P43235).
T1 sequence (P43235 115-329): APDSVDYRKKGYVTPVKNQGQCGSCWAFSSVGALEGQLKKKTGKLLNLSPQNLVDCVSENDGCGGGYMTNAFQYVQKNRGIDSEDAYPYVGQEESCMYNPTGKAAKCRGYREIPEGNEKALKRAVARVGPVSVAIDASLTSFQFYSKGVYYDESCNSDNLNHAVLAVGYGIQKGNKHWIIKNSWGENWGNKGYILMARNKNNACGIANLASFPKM
Kind of experiment: Cathepsin K inhibition, fluorogenic peptide substrate kinetic assay. As to conditions: Table III; Cathepsin K inhibition constant, pH5.5; read-out: Ki Cat. K. As to the method:
as §1, with “The optimal substrate for cathepsin K, acetyl-lysine-histidine-proline-lysine-amino carbamoyl coumarin, was identified from screening a combinatorial library of fluorogenic peptide substrates (Harris, J. L., B. J. Backes, et al., Proc Natl Acad Sci U S A 2000, 97(14), 7754-9). Kinetic” for “Kinetic”, “substrate, acetyl-lysine-histidine-proline-lysine-amino” for “substrate, acetyl-histidine-lysine-phenylalanine-lysine-amino”, “of 40” for “of 20”

Sequence of Cathepsin S (P25774 115-331, species assumed): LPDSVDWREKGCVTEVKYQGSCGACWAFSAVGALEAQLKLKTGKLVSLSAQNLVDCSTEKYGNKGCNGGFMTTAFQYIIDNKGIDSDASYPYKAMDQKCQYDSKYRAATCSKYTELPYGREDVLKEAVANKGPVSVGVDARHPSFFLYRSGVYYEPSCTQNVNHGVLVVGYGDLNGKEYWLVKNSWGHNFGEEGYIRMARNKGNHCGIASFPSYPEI
Sequence of Cathepsin L (P07711 114-333, species assumed): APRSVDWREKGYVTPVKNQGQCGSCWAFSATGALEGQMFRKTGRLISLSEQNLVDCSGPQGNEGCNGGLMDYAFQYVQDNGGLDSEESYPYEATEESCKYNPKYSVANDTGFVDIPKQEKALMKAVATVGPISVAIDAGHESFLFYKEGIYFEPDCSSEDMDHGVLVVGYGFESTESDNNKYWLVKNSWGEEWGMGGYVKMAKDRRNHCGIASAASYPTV

Regarding `CC(C(=O)N[C@@H](CC1CCCCC1)C(=O)NCCN1CCc2cc(F)ccc21)c1ccc(O)cc1` (stereo partly drawn) [Compound 101, N-{2-cyclohexyl-1-(S)-[2-(5-fluoro-2,3-dihydro-indol-1-yl)-ethylcarbamoyl]-ethyl}-2-(4-hydroxy-phenyl)-propionamide], the Ki in experiment [1] is above 10 µM; in experiment [2] (Table II), below 0.1 µM; in experiment [2] (Table III) it was below 0.1 µM; in experiment [3], below 10 µM; in experiment [4], above 10 µM.

For `O=C(N[C@H](C(=O)N[C@@H](COCc1ccccc1)CN1CCc2cc(F)ccc21)c1ccc(Cl)cc1Cl)c1ccc(F)c(F)c1` [Compound 211, N-(S)-((3-(benzyloxy)-1-(5-fluoroindolin-1-yl)propan-2-(R)-ylcarbamoyl)(2,4-dichlorophenyl)methyl)-3,4-difluorobenzamide], the Ki in experiment [1] is above 10 µM; in experiment [2] (Table II), below 0.1 µM; in experiment [2] (Table III) it was below 0.1 µM; in experiment [3], below 10 µM; in experiment [4] it was above 10 µM.

Regarding `COc1cccc(C(=O)N[C@@H](CC2CCCCC2)C(=O)N[C@@H](CN2CCOCC2)CN2CCc3cc(F)ccc32)c1` [Compound 151, N-{2-Cyclohexyl-1-(S)-[2-(5-fluoro-2,3-dihydro-indol-1-yl)-1-(S)-morpholin-4-ylmethyl-ethylcarbamoyl]-ethyl}-3-methoxy-benzamide], the Ki in experiment [1] was above 10 µM; in experiment [2] (Table II), below 0.1 µM; in experiment [2] (Table III) it was below 0.1 µM; in experiment [3] it was below 0.1 µM; in experiment [4], below 10 µM.

As for `COC(=O)c1ccc(COC[C@@H](CN2CCc3cc(F)ccc32)NC(=O)[C@H](CCC2CCCCC2)NC(=O)c2cccc(OC)c2)cc1` [Compound 171, 4-{2-(R)-[4-Cyclohexyl-2-(S)-(3-methoxy-benzoylamino)-butyrylamino]-3-(5-fluoro-2,3-dihydro-indol-1-yl)-propoxymethyl}-benzoic acid methyl ester], the Ki in experiment [1] is above 10 µM; in experiment [2] (Table II), below 0.1 µM; in experiment [2] (Table III), below 0.1 µM; in experiment [3], below 10 µM; in experiment [4], above 10 µM.

As to `Cc1cccc(S(=O)(=O)N[C@@H](CC2CCCCC2)C(=O)N[C@@H](C)CN2CCc3cc(F)ccc32)c1` [Compound 251, (S,S)-3-Cyclohexyl-N-[2-(5-fluoro-2,3-dihydro-indol-1-yl)-1-methyl-ethyl]-2-(toluene-3-sulfonylamino)-propionamide], the Ki in experiment [1] was above 10 µM; in experiment [2] (Table II) it was below 0.1 µM; in experiment [2] (Table III), below 0.1 µM; in experiment [3], below 10 µM; in experiment [4] it was above 10 µM.

Turning to `COC(=O)c1cccc(NC[C@H](C)NC(=O)[C@H](CC2CCCCC2)NC(=O)c2ccc(-c3cccc(F)c3)o2)c1` [Compound 110, 3-[2-(S)-(3-Cyclohexyl-2-(S)-{[5-(3-fluoro-phenyl)-furan-2-carbonyl]-amino}-propionylamino)-propylamino]-benzoic acid methyl ester], the Ki was above 10 µM in experiment [1]; below 1 µM in experiment [2] (Table II); below 1 µM in experiment [2] (Table III); below 10 µM in experiment [3]; below 10 µM in experiment [4].

For the compound `Cc1ccccc1C(C)C(=O)N[C@@H](CC1CCCCC1)C(=O)NCCN1CCc2cc(F)ccc21` (stereo partly drawn) [Compound 61, N-{2-cyclohexyl-1-(S)-[2-(5-fluoro-2,3-dihydro-indol-1-yl)-ethylcarbamoyl]-ethyl}-2-o-tolyl-propionamide], the Ki in experiment [1] was above 10 µM; in experiment [2] (Table II) it was below 0.1 µM; in experiment [2] (Table III), below 0.1 µM; in experiment [3] it was below 0.1 µM; in experiment [4], above 10 µM.
